Test results from patent US20170226507A1, “COORDINATE CONTROL OF PATHOGENIC SIGNALING BY THE MIR-130/301 FAMILY IN PULMONARY HYPERTENSION AND FIBROPROLIFERATIVE DISEASES” (The Brigham and Women's Hospital, Inc., priority 2014, published 2017).

Tested on: PAECs
Experiment: Proliferation of PAECs (cell counting, BrdU incorporation, PCNA)
Format: cell-based, human
Description: Pre-miRNA oligonucleotides (pre-miR-130a, pre-miR-204, pre-miR-424, and pre-miR-503 and negative control pre-miR-NC1 and premiR-NC2, Life Technologies), anti-miRNAs oligonucleotides (anti-miR-130a and anti-miR-NC, ThermoScientific), tiny LNA oligonucleotides (tiny-130: 5′-[…]-3′ (SEQ ID NO: 3), and tiny-NC 5′-[…]-3′ (SEQ ID NO: 51), Exiqon), siRNAs (PPARγ and scrambled control, Santa Cruz Biotechnology; HIF-1α, HIF-2α, and scrambled control, Life Technologies) were commercially purchased. PAECs and PASMCs were plated and transfected 24 h later at 70-80% confluence using pre-miRNA (5 nM), anti-miRNA (20 nM), tiny-LNA (20 nM) or siRNA (25 nM) with Lipofectamine 2000 reagent (Life Technologies), according to the manufacturers' instructions.
Exponentially growing cells were transfected, collected at the indicated times and counted.
Cells were lysed in RIPA buffer (Santa Cruz Biotechnology) and the protein concentration determined using a Bradford assay (Biorad). Protein lysate ([…]) were resolved by SDS-PAGE and transferred onto a PVDF membrane (Biorad). Membranes were blocked in 5% non-fat milk in TN buffer (50 mM Tris-HCl pH 7.4, 150 mM NaCl) and incubated in the presence of the primary and then secondary antibodies. After washing in TN buffer containing 0.1% Tween, immunoreactive bands were visualized with the ECL system (Amersham Biosciences). […] Primary antibodies for STAT3 (#9139) and P-STAT3 (Tyr-705; #9145) were purchased from Cell Signaling. Primary antibodies against actin (ab 3280), α-smooth-muscle-actin (ab 32575), CD31 (ab28364), and PCNA (ab 29) were obtained from Abcam. Appropriate secondary antibodies (anti-rabbit and anti-mouse) coupled to HRP were used (Santa Cruz Biotechnology).

“tiny-LNA-130: fully LNA-modified tiny LNA oligonucleotide 5′-ATTGCACT-3′ (SEQ ID NO: 3) complementary to the seed region of the miR-130/301 family (all LNA, backbone and methylation of C not given here)” was tested, and the number of cells (counted each day during 3 days) was “greater decrease in the number of cells compared with anti-miR-130a”, the “BrdU incorporation (proliferation)” value (exponentially growing, BrdU pulse 1 h) was “greater decrease in proliferation compared with anti-miR-130a” and the PCNA expression (immunoblot 48 hours after transfection) was “more substantial decrease”.
